Assay results as given in ChEMBL document CHEMBL1201862, “PubChem BioAssay data set” (2004).
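Growth conditions: 96-well plates. Treatment: test compound, 48 hours, 5 concentrations. Analysis: linear interpolation between bracketing concentrations; unreached endpoints set to highest concentration. GI50: concentration for 50% inhibition of growth.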 Active and inactive are the calls of the source. Cut-off read from the data, not from the text of the source: active = GI50 up to about 1.1 µM and inactive = higher.

What was measured:
Experiment in all cases: DTP human tumour cell line panel, 48 h
DLD-1 = tested on: DLD-1
DMS-114 = tested on: DMS-114
DMS-273 = tested on: DMS-273
HOP-18 = tested on: HOP-18
KM-20L2 = tested on: KM-20L2
M19-MEL = tested on: M19-MEL
RXF 631 = tested on: RXF 631
XF498 = tested on: XF498

Measured: GI50

CC1=C[C@@H]2Cc3occc3C(C)(C)[C@@H]2CC1
inactive: DLD-1 17.7 µM | DMS-114 20.2 µM | DMS-273 13.6 µM | HOP-18 23.6 µM | KM-20L2 18.5 µM | M19-MEL 15.6 µM | RXF 631 20.4 µM | XF498 15.3 µM

N#C/N=C(/N)NCO
inactive: DLD-1 > 54 µM | DMS-114 > 43 µM | DMS-273 > 90.4 µM | HOP-18 > 100 µM | KM-20L2 > 51.4 µM | M19-MEL > 60.5 µM | RXF 631 > 100 µM | XF498 > 60.8 µM

COC(=O)/C(=N/O)C(C(=O)OC)C(=O)C(=O)Nc1c(Cl)cc(C)cc1S(=O)(=O)O (stereo not given)
inactive: DLD-1 > 100 µM | DMS-114 56.1 µM | DMS-273 18 µM | HOP-18 > 100 µM | KM-20L2 > 100 µM | M19-MEL > 100 µM | RXF 631 > 100 µM | XF498 > 100 µM

O=C(O)CCNCCCNCCC(=O)O
inactive: DLD-1 > 100 µM | DMS-114 > 100 µM | DMS-273 > 100 µM | HOP-18 > 100 µM | KM-20L2 > 100 µM | M19-MEL > 100 µM | RXF 631 > 100 µM | XF498 > 100 µM

Cc1nc2c(o1)/C(=N\c1ccccc1)c1ccccc1/C2=N/c1ccccc1
inactive: DLD-1 53.6 µM | DMS-114 39.2 µM | DMS-273 63.5 µM | HOP-18 > 100 µM | KM-20L2 > 100 µM | M19-MEL 55.1 µM | RXF 631 81.7 µM | XF498 > 100 µM
